Reference: patent publication US6750058B1, “Transfecting peptide vector, composition containing same and applications” (Commissariat a l'Energie Atomique, priority 1997, dated 2004)

Columns and labels:
Human erythrocytes = assay: Haemolytic test; format: cell-based; conditions: 6 μg of peptide I, 10^6 erythrocytes, 37° C.
Procedure: Human erythrocytes are washed 3 times with PBS buffer. 10^6 erythrocytes are incubated with 6 μg of peptide I for various periods of time at 37° C. After centrifugation at 10,000 g for 5 min, the optical density of the supernatant is measured at 540 nm.

HeLa cells = assay: Transfection of HeLa cells with luciferase plasmid pGL3, light emission in cell lysates; format: cell-based; conditions: for RLU (luciferase light emission): DNA 1.5 μg; for transfection (in words): summary of Table II
Procedure: The HeLa cells are cultured at 37° C. in an EMEM medium supplemented with 10% foetal calf serum under an atmosphere containing 5% CO2.
1.5 to 12 μg of peptide I in 50 μl of dilution buffer (20 mM Tris, pH 7.4, 150 mM NaCl) are incubated with 1.5 μg of plasmid pGL3 in 250 μl of EMEM medium for 15 to 30 min at room temperature.
The mixture of DOTAP or of DOSPER with 1.5 μg of plasmid pGL3 is prepared according to the manufacturer's instructions (Boehringer). For the studies of the effect of the peptide on transfection in the presence of liposomes, portions of peptides are mixed with DOTAP or DOSPER in the dilution buffer defined above for 15 to 30 min at room temperature, and then 1.5 μg of plasmid pGL3 are added and incubated for 15 min at room temperature.
The transfections are carried out in plates comprising 24 wells (Beckton Dickinson) with 1.5×10^5 cells/well (confluence of about 50%) for 1 h at 37° C. After 24 h, the light emission is measured in the cell lysates with the Promega Luciferase Assay System test.

Compound	RLU (luciferase light emission) (HeLa cells; Table II, peptide 9 μg)	RLU (luciferase light emission) (HeLa cells; Table II, peptide 12 μg)	RLU (luciferase light emission) (HeLa cells; Table II, peptide 3-12 μg)	transfection (in words) (HeLa cells)	further results
CC(C)C[C@H](NC(=O)[C@H](CCCNC(=N)N)NC(=O)[C@H](C)NC(=O)[C@H](CCCNC(=N)N)NC(=O)[C@H](CCCCN)NC(=O)[C@H](C)N)C(=O)N[C@@H](CO)C(=O)N[C@H](C(=O)N[C@@H](CO)C(=O)N[C@@H](Cc1ccccc1)C(=O)N[C@@H](CC(N)=O)C(=O)N1CCC[C@H]1C(=O)N[C@H](C(=O)N[C@@H](Cc1ccc(O)cc1)C(=O)N1CCC[C@H]1C(=O)N[C@@H](Cc1ccc(O)cc1)C(=O)N[C@@H](CCC(=O)O)C(=O)N[C@@H](CC(=O)O)C(=O)N[C@@H](CCC(=O)O)C(=O)N[C@@H](CO)C(=O)N[C@@H](CCCCN)C(=O)N[C@@H](CCCCN)C(=O)N[C@@H](CCCCN)C(=O)N[C@@H](CCCCN)C(=O)N[C@@H](CCCCN)C(=O)N[C@@H](CCCCN)C(=O)N[C@@H](CCCCN)C(=O)N[C@@H](CCCCN)C(=O)N[C@@H](CCCCN)C(=O)N[C@@H](CCCCN)C(=O)N[C@@H](CCCCN)C(=O)N[C@@H](CCCCN)C(=O)N[C@@H](CCCCN)C(=O)N[C@@H](CCCCN)C(=O)N[C@@H](CCCCN)C(=O)N[C@@H](CCCCN)C(=O)N[C@@H](CCCCN)C(=O)N[C@@H](CCCCN)C(=O)N[C@@H](CCCCN)C(=O)N[C@@H](CCCCN)C(=O)O)C(C)C)[C@@H](C)O [Peptide I, AKRARLSTSFNPVYPYEDES - K20]	–	–	–	–	haemolytic test result (Human erythrocytes): negative results
A K R A R L S T S E D E S-K10 (AKRARLSTSEDESKKKKKKKKKK) [Peptide IE]	110 RLU/10 s/10^5 cells × 10^3	330 RLU/10 s/10^5 cells × 10^3	–	–	RLU (luciferase light emission) (HeLa cells; Table II, peptide 3 μg): 1 RLU/10 s/10^5 cells × 10^3; RLU (luciferase light emission) (HeLa cells; Table II, peptide 6 μg): 10 RLU/10 s/10^5 cells × 10^3; times less efficient than peptide IC (HeLa cells; transfection efficiency, Table II): approximately 30 times
AKRARLSTSFNPVYPYEDES - K10 [Peptide IC]	2870 RLU/10 s/10^5 cells × 10^3	1330 RLU/10 s/10^5 cells × 10^3	–	–	RLU (luciferase light emission) (HeLa cells; Table II, peptide 3.6 μg): 1 RLU/10 s/10^5 cells × 10^3; effect of reduced number of lysines in the polylysine polymer on transfection efficiency (HeLa cells; can be compensated for by increasing the quantity of peptide): modest negative effect
AKRARLSTSFNPVYPYEDES [Peptide IA]	–	–	1 RLU/10 s/10^5 cells × 10^3	no transfection	–
L S T S F N P V Y P Y E D E S-K20 [Peptide ID]	–	–	1 RLU/10 s/10^5 cells × 10^3	no transfection	attaching and condensing the DNA and entering into the cell (HeLa cells): still capable of attaching and condensing the DNA and of entering into the cell; transport of the DNA into the nucleus (HeLa cells): incapable of transporting this DNA into the nucleus
